Laboratory results as given in US20060069132A1, “Azolecarboxamide herbicides” (priority 2004, published 2006).

Assays:
kochia [1] = test: Test E pre-/postemergence herbicide test; assay type: in vivo, Kochia scoparia
Excerpt: Seeds of plant species selected from bipinnate beggarticks (Bidens bipinnata L.), hairy beggarticks (Bidens radiata Thuill.), bermudagrass (Cynodon dactylon (L.) Pers.), Surinam grass (Urochloa decumbens (Staph) R. D. Webster, previously named Brachiaria decumbens Stapf), large crabgrass (Digitaria sanguinalis (L.) Scop.), green foxtail (Setaria viridis (L.) P. Beauv.), goosegrass (Eleusine indica (L.) Gaertn.), johnsongrass (Sorghum halepense (L.) Pers.), kochia (Kochia scoparia (L.) Schrad.), pitted morningglory (Ipomoea lacunosa L.), purple nutsedge (Cyperus rotundus L.), common ragweed (Ambrosia elatior L.), mustard (Brassica nigra (L.) W. D. J. Koch), guineagrass (Panicum maximum Jacq.), dallisgrass (Paspalum dilatatum Poir.), barnyardgrass (Echinochloa crus-galli (L). P. Beauv.), southern sandbur (Cenchrus echinatus L.), common sowthistle (Sonchus oleraceous L.), prickly sida (Sida spinosa L.), Italian ryegrass (Lolium multiflorum Lam.), common purslane (Portulaca oleracea L.), broadleaf signalgrass (Brachiaria platyphylla (Griseb.) Nash), common groundsel (Senecio vulgaris L.), common chickweed (Stellaria media (L.) Vill/Cyr.), tropical spiderwort (Commelina benghalensis L.), annual bluegrass (Poa annua L.), downy bromegrass (Bromus tectorum L.), itchgrass (Rottboellia cochinchinensis (L.) L.f.), quackgrass (Elytrigia repens (L.) Nevski), Canada horseweed (Erigeron Canadensis L.), field bindweed (Convolvulus arvensis L.), spotted spurge (Euphorbia maculata L.), common mallow (Malva sylvestris (=s silvestris) L.), and Russian thistle (Salsola kali L. ssp. Ruthenica (Iljin) Soo) were planted and treated preemergence with test chemicals formulated in a non-phytotoxic solvent mixture which included a surfactant.
At the same time, plants selected from these weed species were treated with postemergence applications of some of the test chemicals formulated in the same manner. Plants ranged in height from 2 to 18 cm (1- to 4-leaf stage) for postemergence treatments. Treated plants and controls were maintained in a greenhouse for 12 to 14 days, after which time all species were compared to controls and visually evaluated. Plant response ratings, summarized in Table E, are based on a scale of 0 to 100 where 0 is no effect and 100 is complete control. A dash (-) response means no test result.

[2] = system: corn (maize) cv. Pioneer 33G26; test: Test G safening on corn by naphthalic anhydride seed treatment, preemergence; assay type: in vivo, Zea mays
Excerpt: This test evaluated the safening of compounds of the invention on corn (maize; Zea mays L.) cv. ‘Pioneer 33G26’ by seed treatment with naphthalic anhydride (1,8-naphthalic anhydride). All corn seed had been first treated with fludioxonil and metaxyl applied at the manufacturer's recommended rate as per the Pioneer 33G26 label. Some of the corn seed were subsequently also treated with naphthalic anhydride as a 1% by weight seed dressing. The corn seed were planted in pots containing pasteurized Sassafras sandy loam soil, and then treatments were applied preemergence the same day. Treatments were applied by spraying the test compounds formulated in a non-phytotoxic solvent mixture, using a flat fan nozzle and a spray volume of 280 L/ha. The treatments were triply replicated and the results subsequently averaged. The pots were placed on a greenhouse bench using a complete randomized block design except for the first replicate, which was unrandomized. The plants were grown in the greenhouse and watered as needed with a dilute nutrient solution containing 200 ppm of N. Illumination was daylight supplemented by artificial sources to maintaining a photoperiod of 16 hours. The temperature was maintained at 28±2° C. during the day and 23±2° C. at night. The plant response was visually rated 25 days after treatment in comparison to untreated controls using a scale of 0 to 100, with 0 representing no effect and 100 representing complete plant death.

annual blugrass = test: Test F pre-/postemergence herbicide test; assay type: in vivo, Poa annua
Excerpt: (§1) Seeds of plant species selected from annual blugrass (Poa annua L.), blackgrass (Alopecurus myosuroides Huds.), catchweed bedstraw (Gallium aparine L.), common chickweed (Stellaria media (L.) Vill./Cyr.), downy bromegrass (Bromus tectorum L.), green foxtail (Setaria viridis (L.) Beauv.), Italian ryegrass (Lolium multiflorum Lam.), kochia (Kochia scoparia (L.). Schrad.), lambsquarters (Chenopodium album L.), littleseed canarygrass (Phalaris minor Retz.), pigweed (Amaranthus retroflexus L.), Russian thistle (Salsola kali L. ssp. Ruthenica (Iljin) Soo), wild buckwheat (Polygonum convolvulus L.), wild mustard (Sinapis arvensis L.), wild oat (Avena fatua L.), windgrass (Apera spica-venti (L.) Beauv.), winter barley (Hordeum vulgare L.), and wheat (Triticum aestivum L.) were planted and treated preemergence with test chemicals formulated in a non-phytotoxic solvent mixture which included a surfactant.
(§2) At the same time, plants selected from these crop and weed species were treated with postemergence applications of some of the test chemicals formulated in the same manner. Plants ranged in height from 2 to 18 cm (1- to 4-leaf stage) for postemergence treatments. Treated plants and controls were maintained in a greenhouse for 12 to 14 days, after which time all species were compared to controls and visually evaluated. Plant response ratings, summarized in Table F, are based on a scale of 0 to 100 where 0 is no effect and 100 is complete control. A dash (-) response means no test result.

blackgrass = test: Test F pre-/postemergence herbicide test; assay type: in vivo, Alopecurus myosuroides
Excerpt: as §1, §2

catchweed bedstraw = test: Test F pre-/postemergence herbicide test; assay type: in vivo, Gallium aparine
Excerpt: as §1, §2

green foxtail = test: Test F pre-/postemergence herbicide test; assay type: in vivo, Setaria viridis
Excerpt: as §1, §2

kochia [3] = test: Test F pre-/postemergence herbicide test; assay type: in vivo, Kochia scoparia
Excerpt: as §1, §2

littleseed canarygrass = test: Test F pre-/postemergence herbicide test; assay type: in vivo, Phalaris minor
Excerpt: as §1, §2

wheat = test: Test F pre-/postemergence herbicide test; assay type: in vivo, Triticum aestivum
Excerpt: as §1, §2

[4] = Preemergence, 62 g ai/ha, scale 0 to 100
[5] = Preemergence, 250 g ai/ha, scale 0 (no effect) to 100 (complete control)
[6] = Preemergence, 500 g ai/ha, scale 0 (no effect) to 100 (complete control)

CCNC(=O)c1ccc(F)c(NC(=O)c2cc(C(C)(C)C)nn2CC)c1 [Compound 2, 3-(1,1-dimethylethyl)-1-ethyl-N-[5-[(ethylamino)carbonyl]-2-fluorophenyl]-1H-pyrazole-5-carboxamide]
Plant response rating, Kochia (kochia [1]; [4]): 90
Plant response rating, Kochia (kochia [1]; Preemergence, 125 g ai/ha, scale 0 (no effect) to 100 (complete control)): 100
Plant response rating, Kochia (kochia [1]; [5]): 100
Plant response rating, Kochia (kochia [1]; [6]): 100
Plant response rating, Kochia (kochia [1]; postemergence, 125 g ai/ha, scale 0 to 100): 100
Response of corn, With 1% naphthalic anhydride seed treatment ([2]; 62 g a.i./ha): 50
Response of corn, Without naphthalic anhydride seed treatment ([2]; 62 g a.i./ha): 65
Response of corn, With 1% naphthalic anhydride seed treatment ([2]; 125 g a.i./ha): 55
Response of corn, Without naphthalic anhydride seed treatment ([2]; 125 g a.i./ha): 72
Response of corn, With 1% naphthalic anhydride seed treatment ([2]; 250 g a.i./ha): 68
Response of corn, Without naphthalic anhydride seed treatment ([2]; 250 g a.i./ha): 78
Response of corn, With 1% naphthalic anhydride seed treatment ([2]; 500 g a.i./ha): 72
Response of corn, Without naphthalic anhydride seed treatment ([2]; 500 g a.i./ha): 85

CCn1nc(C(C)(C)C)cc1C(=O)Nc1cccc(C(N)=O)n1 [Compound 162, 6-[[[3-(1,1-dimethylethyl)-1-ethyl-1H-pyrazol-5-yl]carbonyl]amino]-2-pyridinecarboxamide]
Plant response rating, Kochia (kochia [1]; [4]): 60
Plant response rating, Kochia (kochia [1]; Preemergence, 125 g ai/ha, scale 0 to 100): 70
Plant response rating, Kochia (kochia [1]; [5]): 95
Plant response rating, Kochia (kochia [1]; [6]): 95
Plant response rating (0-100), Bluegrass (annual blugrass; Postemergence, 62 g ai/ha): 60
Plant response rating (0-100), Bluegrass (annual blugrass; Postemergence, 125 g ai/ha): 60
Plant response rating (0-100), Bluegrass (annual blugrass; Postemergence, 250 g ai/ha): 90
Plant response rating (0-100), Bluegrass (annual blugrass; Postemergence, 500 g ai/ha): 100
Plant response rating (0-100), Bluegrass (annual blugrass; Preemergence, 62 g ai/ha): 100
Plant response rating (0-100), Bluegrass (annual blugrass; Preemergence, 125 g ai/ha): 100
Plant response rating (0-100), Bluegrass (annual blugrass; Preemergence, 250 g ai/ha): 100
Plant response rating (0-100), Bluegrass (annual blugrass; Preemergence, 500 g ai/ha): 100
Plant response rating (0-100), Blackgrass (blackgrass; Postemergence, 62 g ai/ha): 70
Plant response rating (0-100), Blackgrass (blackgrass; Postemergence, 125 g ai/ha): 80
Plant response rating (0-100), Blackgrass (blackgrass; Postemergence, 250 g ai/ha): 100
Plant response rating (0-100), Blackgrass (blackgrass; Postemergence, 500 g ai/ha): 100
Plant response rating (0-100), Blackgrass (blackgrass; Preemergence, 62 g ai/ha): 90
Plant response rating (0-100), Blackgrass (blackgrass; Preemergence, 125 g ai/ha): 100
Plant response rating (0-100), Blackgrass (blackgrass; Preemergence, 250 g ai/ha): 100
Plant response rating (0-100), Blackgrass (blackgrass; Preemergence, 500 g ai/ha): 100
Plant response rating (0-100), Galium (catchweed bedstraw; Preemergence, 62 g ai/ha): 60
Plant response rating (0-100), Galium (catchweed bedstraw; Preemergence, 125 g ai/ha): 70
Plant response rating (0-100), Galium (catchweed bedstraw; Preemergence, 250 g ai/ha): 100
Plant response rating (0-100), Galium (catchweed bedstraw; Preemergence, 500 g ai/ha): 100
Plant response rating (0-100), Foxtail, Green (green foxtail; Postemergence, 62 g ai/ha): 50
Plant response rating (0-100), Foxtail, Green (green foxtail; Postemergence, 125 g ai/ha): 50
Plant response rating (0-100), Foxtail, Green (green foxtail; Postemergence, 250 g ai/ha): 60
Plant response rating (0-100), Foxtail, Green (green foxtail; Postemergence, 500 g ai/ha): 100
Plant response rating (0-100), Foxtail, Green (green foxtail; Preemergence, 62 g ai/ha): 70
Plant response rating (0-100), Foxtail, Green (green foxtail; Preemergence, 125 g ai/ha): 100
Plant response rating (0-100), Foxtail, Green (green foxtail; Preemergence, 250 g ai/ha): 100
Plant response rating (0-100), Foxtail, Green (green foxtail; Preemergence, 500 g ai/ha): 100
Plant response rating (0-100), Kochia (kochia [3]; Postemergence, 62 g ai/ha): 100
Plant response rating (0-100), Kochia (kochia [3]; Postemergence, 125 g ai/ha): 100
Plant response rating (0-100), Kochia (kochia [3]; Postemergence, 250 g ai/ha): 100
Plant response rating (0-100), Kochia (kochia [3]; Postemergence, 500 g ai/ha): 100
Plant response rating (0-100), Kochia (kochia [3]; Preemergence, 62 g ai/ha): 60
Plant response rating (0-100), Kochia (kochia [3]; Preemergence, 125 g ai/ha): 100
Plant response rating (0-100), Kochia (kochia [3]; Preemergence, 250 g ai/ha): 100
Plant response rating (0-100), Kochia (kochia [3]; Preemergence, 500 g ai/ha): 100
Plant response rating (0-100), Canarygrass (littleseed canarygrass; Postemergence, 62 g ai/ha): 70
Plant response rating (0-100), Canarygrass (littleseed canarygrass; Postemergence, 125 g ai/ha): 70
Plant response rating (0-100), Canarygrass (littleseed canarygrass; Postemergence, 250 g ai/ha): 100
Plant response rating (0-100), Canarygrass (littleseed canarygrass; Postemergence, 500 g ai/ha): 100
Plant response rating (0-100), Canarygrass (littleseed canarygrass; Preemergence, 62 g ai/ha): 100
Plant response rating (0-100), Canarygrass (littleseed canarygrass; Preemergence, 125 g ai/ha): 100
Plant response rating (0-100), Canarygrass (littleseed canarygrass; Preemergence, 250 g ai/ha): 100
Plant response rating (0-100), Canarygrass (littleseed canarygrass; Preemergence, 500 g ai/ha): 100
Plant response rating (0-100), Wheat (wheat; Postemergence, 62 g ai/ha): 20
Plant response rating (0-100), Wheat (wheat; Postemergence, 125 g ai/ha): 40
Plant response rating (0-100), Wheat (wheat; Postemergence, 250 g ai/ha): 50
Plant response rating (0-100), Wheat (wheat; Postemergence, 500 g ai/ha): 70
Plant response rating (0-100), Wheat (wheat; Preemergence, 62 g ai/ha): 60
Plant response rating (0-100), Wheat (wheat; Preemergence, 125 g ai/ha): 100
Plant response rating (0-100), Wheat (wheat; Preemergence, 250 g ai/ha): 100
Plant response rating (0-100), Wheat (wheat; Preemergence, 500 g ai/ha): 100
Response of corn, With 1% naphthalic anhydride seed treatment ([2]; 62 g a.i./ha): 0
Response of corn, Without naphthalic anhydride seed treatment ([2]; 62 g a.i./ha): 15
Response of corn, With 1% naphthalic anhydride seed treatment ([2]; 125 g a.i./ha): 25
Response of corn, Without naphthalic anhydride seed treatment ([2]; 125 g a.i./ha): 30
Response of corn, With 1% naphthalic anhydride seed treatment ([2]; 250 g a.i./ha): 60
Response of corn, Without naphthalic anhydride seed treatment ([2]; 250 g a.i./ha): 68
Response of corn, With 1% naphthalic anhydride seed treatment ([2]; 500 g a.i./ha): 63
Response of corn, Without naphthalic anhydride seed treatment ([2]; 500 g a.i./ha): 85

CCc1nn(C(C)(C)C)cc1C(=O)Nc1cc(C(=O)N(CC)CC)ccc1F [Compound 223]
Plant response rating (0-100), Bluegrass (annual blugrass; Postemergence, 125 g ai/ha): 50
Plant response rating (0-100), Bluegrass (annual blugrass; Preemergence, 125 g ai/ha): 100
Plant response rating (0-100), Blackgrass (blackgrass; Postemergence, 125 g ai/ha): 60
Plant response rating (0-100), Blackgrass (blackgrass; Preemergence, 125 g ai/ha): 70
Plant response rating (0-100), Galium (catchweed bedstraw; Postemergence, 125 g ai/ha): 60
Plant response rating (0-100), Galium (catchweed bedstraw; Preemergence, 125 g ai/ha): 50
Plant response rating (0-100), Foxtail, Green (green foxtail; Postemergence, 125 g ai/ha): 60
Plant response rating (0-100), Foxtail, Green (green foxtail; Preemergence, 125 g ai/ha): 55
Plant response rating (0-100), Kochia (kochia [3]; Postemergence, 125 g ai/ha): 75
Plant response rating (0-100), Kochia (kochia [3]; Preemergence, 125 g ai/ha): 75
Plant response rating (0-100), Canarygrass (littleseed canarygrass; Postemergence, 125 g ai/ha): 40
Plant response rating (0-100), Canarygrass (littleseed canarygrass; Preemergence, 125 g ai/ha): 50
Plant response rating (0-100), Wheat (wheat; Postemergence, 125 g ai/ha): 0
Plant response rating (0-100), Wheat (wheat; Preemergence, 125 g ai/ha): 0
